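The compound was tested at five concentrations on cells cultured in 96-well plates, with a 48-hour exposure period. At the TGI there is no net growth.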
How the values were obtained:
Experiment in all cases: NCI tumour cell line growth inhibition, 48 h
[1] = system: A498 renal
[2] = system: A549 NSCLC
[3] = system: CAKI-1 renal
[4] = system: CCRF-CEM leukemia
[5] = system: COLO 205 colon
[6] = system: DLD-1 colon
[7] = system: DMS 114 small cell lung
[8] = system: DMS 273 small cell lung
[9] = system: EKVX NSCLC
[10] = system: HCC-2998 colon
[11] = system: HCT-116 colon
[12] = system: HCT-15 colon
[13] = system: HL-60(TB) leukemia
[14] = system: HOP-18 NSCLC
[15] = system: HOP-62 NSCLC
[16] = system: HOP-92 NSCLC
[17] = system: HT29 colon
[18] = system: IGROV1 ovarian
[19] = system: K-562 leukemia
[20] = system: KM12 colon
[21] = system: KM20L2 colon
[22] = system: LOX IMVI melanoma
[23] = system: M19-MEL melanoma
[24] = system: MALME-3M melanoma
[25] = system: MCF7 breast
[26] = system: MOLT-4 leukemia
[27] = system: NCI-H226 lung
[28] = system: NCI-H23 lung
[29] = system: NCI-H460 lung
[30] = system: NCI-H522 lung
[31] = system: NCI/ADR-RES ovarian
[32] = system: OVCAR-3 ovarian
[33] = system: OVCAR-4 ovarian
[34] = system: OVCAR-5 ovarian
[35] = system: OVCAR-8 ovarian
[36] = system: P388 leukemia
[37] = system: P388/ADR leukemia
[38] = system: RPMI-8226 leukemia
[39] = system: RXF 393 renal
[40] = system: SF-268 CNS
[41] = system: SF-295 CNS
[42] = system: SF-539 CNS
[43] = system: SK-MEL-2 melanoma
[44] = system: SK-MEL-28 melanoma
[45] = system: SK-MEL-5 melanoma
[46] = system: SK-OV-3 ovarian
[47] = system: SN12C renal
[48] = system: SN12K1 renal
[49] = system: SNB-19 CNS
[50] = system: SNB-75 CNS
[51] = system: SNB-78 CNS
[52] = system: SW-620 colon
[53] = system: U251 CNS
[54] = system: UACC-257 melanoma
[55] = system: UACC-62 melanoma
[56] = system: UO-31 renal

SMILES: Cc1c2cnccc2c(C)c2c1c1ccccc1n2CC1CO1 (stereo unspecified)
- TGI [1]: 0.581 µM
- TGI [2]: 4.85 µM
- TGI [3]: 4.87 µM
- TGI [4]: 1.28 µM
- TGI [5]: 2.87 µM
- TGI [6]: 4.58 µM
- TGI [7]: 2.43 µM
- TGI [8]: 2.43 µM
- TGI [9]: 2.08 µM
- TGI [10]: 4.4 µM
- TGI [11]: 5.07 µM
- TGI [12]: 4.56 µM
- TGI [13]: 0.597 µM
- TGI [14]: 6.56 µM
- TGI [15]: 3.34 µM
- TGI [16]: 4.31 µM
- TGI [17]: 4.82 µM
- TGI [18]: 5.99 µM
- TGI [19]: 3.24 µM
- TGI [20]: 10.9 µM
- TGI [21]: 4.62 µM
- TGI [22]: 2.74 µM
- TGI [23]: 2.94 µM
- TGI [24]: 3.44 µM
- TGI [25]: 2.91 µM
- TGI [26]: 0.328 µM
- TGI [27]: 5.54 µM
- TGI [28]: 8.4 µM
- TGI [29]: 2.52 µM
- TGI [30]: 3.29 µM
- TGI [31]: 3.57 µM
- TGI [32]: 3.76 µM
- TGI [33]: 5.46 µM
- TGI [34]: 5.54 µM
- TGI [35]: 2.8 µM
- TGI [36]: 1.26 µM
- TGI [37]: 1.61 µM
- TGI [38]: 7.6 µM
- TGI [39]: 1.92 µM
- TGI [40]: 2.09 µM
- TGI [41]: 3.2 µM
- TGI [42]: 2.52 µM
- TGI [43]: 3.44 µM
- TGI [44]: 4.03 µM
- TGI [45]: 2.23 µM
- TGI [46]: 6.93 µM
- TGI [47]: 1.31 µM
- TGI [48]: 2.2 µM
- TGI [49]: 5.59 µM
- TGI [50]: 0.861 µM
- TGI [51]: 5.14 µM
- TGI [52]: 2.8 µM
- TGI [53]: 9.1 µM
- TGI [54]: 3.51 µM
- TGI [55]: 8.19 µM
- TGI [56]: 3.02 µM
